The compounds below were run on NLRP3 inflammasome (assay: NLRP3 inflammasome activation: ASC-SPECK formation in gramicidin-stimulated THP-1 cells). Conditions: inhibition of ASC SPECK formation; PMA-treated human monocytic THP-1 cells, compound 1 h before 12.5 μg/ml gramicidin, 3-hour treatment.
Type: cell-based
Description: Activation of the canonical NLRP3 inflammasome requires two steps, priming and activation. A priming signal such as a pathogen activated molecular patterns (PAMPs) or danger-activated molecular patterns (DAMPs) are recognized by Toll-like receptors leads to nuclear factor kappa B (NF-KB)-mediated signaling. […] The second step is activation which induces oligomerization of NLRP3 and subsequent assembly of NLRP3, apoptosis-associated speck-like protein containing a CARD (ASC), and procaspase-1 into an inflammasome complex. This triggers the transformation of procaspase-1 to caspase-1, and the production and secretion of mature IL-1β and IL-18 (Kim et al., J. Inflamm. 2015, 12, 41; Ozaki et al., J. Inflamm. Res. 2015, 8, 15-27; Rabeony et al., Eur. J. Immunol. 2015, 45, 2847). During inflammasome complex assembly, the oligomerization of NLRP3 triggers the nucleation of ASC and an event commonly referred to as “ASC SPECK” formation, as it is identified in the cell as a discrete puncta within the cell after staining and visualization of ASC using common immunocytochemical methods.
The ability of compounds to inhibit NLRP3 inflammasome activation was determined in vitro by monitoring formation of the ASC-SPECK in human monocytic THP-1 cells after stimulation. THP-1 cells (ATCC catalog #TIB-202) were maintained in complete growth media containing Roswell Park Memorial Institute RPMI (ATCC catalog #30-2001), 10% heat inactivated fetal bovine serum, 1× penicillin/streptomycin and 0.05 mM 2-mercaptoethanol. At the start of the assay, undifferentiated THP-1 cells were plated at a density of 20,000 cells per well in a 384-well plate (Poly-D-lysine coated Cell Carrier Ultra microplate, Perkin Elmer catalog #6057500) in complete growth media supplemented with 10 ng/ml phorbol 12-myristate 13-acetate (PMA; Sigma catalog #P8139), and then incubated overnight. The next day, media was replaced with assay media (RPMI (Gibco catalog #11875-093), 0.01% bovine serum albumin (BSA)). Compounds were serially diluted in DMSO and then added to wells one hour prior to the addition of 12.5 μg/ml Gramicidin (Enzo Lifescience, catalog #ALX-350-233-M005). All incubations were carried out at 37° C. (5% CO2/95% air). Following a 3-hour treatment with gramicidin, cells are fixed with 4% paraformaldehyde and stored at 4° C. until immunofluorescence staining.
Immunofluorescence staining: Anti-ASC antibody (MBL catalog #D086-3) was desalted and labeled with Alexa 488 antibody labeling kit (Thermo catalog #A20181) prior to use as described below. After fixation, the following steps were carried out at rt. Cells were first permeabilized with 0.3% polyethylene glycol tert-octylphenyl ether (Triton X-100) in phosphate-buffered saline (PBS) for 15 minutes and then incubated in blocking buffer containing 5% goat serum, 0.3% polyethylene glycol sorbitan monolaurate (Tween-20) and 0.03% sodium azide in PBS for 1 hour. Cells were stained with a mixture of ASC-Alexa 488 antibody (diluted 1:200 in blocking buffer) and nuclear stain DRAQ5 (1:5000 in blocking buffer, Thermo catalog #62251) in blocking buffer for 1 hour. Following a wash with 0.3% polyethylene glycol sorbitan monolaurate (Tween-20) in PBS, plates were imaged with an Opera Phenix High Content Screening System. The number of DRAQ5 positive cells containing ASC SPECKS were quantified in each well.
Data analysis: EC50 values were calculated by standard curve-fitting analysis using an internally developed program in TIBCO Spotfire software.
Work on `Cc1cc(C(F)(F)F)cc(O)c1-c1cnc2cn(C3C4CS(=O)(=O)CC43)nc2n1` (single isomer, unassigned) [Example 54, (1R,5S,6R or 1R,5S,6S)-6-(6-(2-hydroxy-6-methyl-4-(trifluoromethyl)phenyl)-2H-pyrazolo[3,4-b]pyrazin-2-yl)-3-thiabicyclo[3.1.0]hexane 3,3-dioxide] yielded an EC50 of 98 nM.
`Cc1cc(C(F)(F)F)cc(O)c1-c1cnc2cn(CC3CC(=O)N(C)C3)nc2n1` (single isomer, unassigned) [Example 58, (R or S)-4-((6-(2-hydroxy-6-methyl-4-(trifluoromethyl)phenyl)-2H-pyrazolo[3,4-b]pyrazin-2-yl)methyl)-1-methylpyrrolidin-2-one] was tested, and the EC50 was 298 nM.
For `Cc1cc(C(F)(F)F)cc(O)c1-c1cnc2cn(CC3CC(=O)N(C)C3)nc2n1` (single isomer, unassigned) [Example 59, (S or R)-4-((6-(2-hydroxy-6-methyl-4-(trifluoromethyl)phenyl)-2H-pyrazolo[3,4-b]pyrazin-2-yl)methyl)-1-methylpyrrolidin-2-one], the EC50 was 20 nM.
With `Cc1cc(C(F)(F)F)cc(O)c1-c1cnc2cn(C3CCC(=O)N(C(C)C)C3)nc2n1` (single isomer, unassigned) [Example 60, (R or S)-5-(6-(2-hydroxy-6-methyl-4-(trifluoromethyl)phenyl)-2H-pyrazolo[3,4-b]pyrazin-2-yl)-1-isopropylpiperidin-2-one] the EC50 was 7 nM.
`Cc1cc(C(F)(F)F)cc(O)c1-c1cnc2cn(C3CCC(=O)N(C(C)C)C3)nc2n1` (single isomer, unassigned) [Example 61, (S or R)-5-(6-(2-hydroxy-6-methyl-4-(trifluoromethyl)phenyl)-2H-pyrazolo[3,4-b]pyrazin-2-yl)-1-isopropylpiperidin-2-one] showed an EC50 of 101 nM.
`Cc1cc(C(F)(F)F)cc(O)c1-c1cnc2cn(CC3CC(=O)N(C4CC4)C3)nc2n1` (single isomer, unassigned) [Example 62, (R or S)-1-cyclopropyl-4-((6-(2-hydroxy-6-methyl-4-(trifluoromethyl)phenyl)-2H-pyrazolo[3,4-b]pyrazin-2-yl)methyl)pyrrolidin-2-one] was tested, and the EC50 was 291 nM.
`Cc1cc(C(F)(F)F)cc(O)c1-c1cnc2cn(CC3CC(=O)N(C4CC4)C3)nc2n1` (single isomer, unassigned) [Example 63, (S or R)-1-cyclopropyl-4-((6-(2-hydroxy-6-methyl-4-(trifluoromethyl)phenyl)-2H-pyrazolo[3,4-b]pyrazin-2-yl)methyl)pyrrolidin-2-one] gave an EC50 of 12 nM.
With `CCN1CC(n2cc3ncc(-c4c(C)cc(C(F)(F)F)cc4O)nc3n2)CCC1=O` (single isomer, unassigned) [Example 64, (R or S)-1-ethyl-5-(6-(2-hydroxy-6-methyl-4-(trifluoromethyl)phenyl)-2H-pyrazolo[3,4-b]pyrazin-2-yl)piperidin-2-one] the EC50 was 10 nM.
Compound `CCN1CC(n2cc3ncc(-c4c(C)cc(C(F)(F)F)cc4O)nc3n2)CCC1=O` (single isomer, unassigned) [Example 65, (S or R)-1-ethyl-5-(6-(2-hydroxy-6-methyl-4-(trifluoromethyl)phenyl)-2H-pyrazolo[3,4-b]pyrazin-2-yl)piperidin-2-one] has an EC50 of 79 nM.
`CCN1CC(Cn2cc3ncc(-c4c(C)cc(C(F)(F)F)cc4O)nc3n2)CC1=O` (single isomer, unassigned) [Example 66, (R or S)-1-ethyl-4-((6-(2-hydroxy-6-methyl-4-(trifluoromethyl)phenyl)-2H-pyrazolo[3,4-b]pyrazin-2-yl)methyl)pyrrolidin-2-one] showed an EC50 of 359 nM.
`CCN1CC(Cn2cc3ncc(-c4c(C)cc(C(F)(F)F)cc4O)nc3n2)CC1=O` (single isomer, unassigned) [Example 67, (S or R)-1-ethyl-4-((6-(2-hydroxy-6-methyl-4-(trifluoromethyl)phenyl)-2H-pyrazolo[3,4-b]pyrazin-2-yl)methyl)pyrrolidin-2-one] showed an EC50 of 7 nM.
`Cc1cc(C(F)(F)F)cc(O)c1-c1cnc2cn(C3CCc4nnn(C)c4C3)nc2n1` (single isomer, unassigned) [Example 68, (R or S)-3-methyl-2-(2-(1-methyl-4,5,6,7-tetrahydro-1H-benzo[d][1,2,3]triazol-6-yl)-2H-pyrazolo[3,4-b]pyrazin-6-yl)-5-(trifluoromethyl)phenol] was tested, and the EC50 was 40 nM.
`Cc1cc(C(F)(F)F)cc(O)c1-c1cnc2cn(C3CCc4nnn(C)c4C3)nc2n1` (single isomer, unassigned) [Example 69, (S or R)-3-methyl-2-(2-(1-methyl-4,5,6,7-tetrahydro-1H-benzo[d][1,2,3]triazol-6-yl)-2H-pyrazolo[3,4-b]pyrazin-6-yl)-5-(trifluoromethyl)phenol] showed an EC50 of 15 nM.
For `Cc1cc(C(F)(F)F)cc(O)c1-c1cnc2cn(C3CCc4nnc(C(F)(F)F)n4C3)nc2n1` (single isomer, unassigned) [Example 70, (R or S)-3-methyl-5-(trifluoromethyl)-2-(2-(3-(trifluoromethyl)-5,6,7,8-tetrahydro-[1,2,4]triazolo[4,3-a]pyridin-6-yl)-2H-pyrazolo[3,4-b]pyrazin-6-yl)phenol], the EC50 was 12 nM.
In the case of `Cc1cc(C(F)(F)F)cc(O)c1-c1cnc2cn(C3CCc4nnc(C(F)(F)F)n4C3)nc2n1` (single isomer, unassigned) [Example 71, (S or R)-3-methyl-5-(trifluoromethyl)-2-(2-(3-(trifluoromethyl)-5,6,7,8-tetrahydro-[1,2,4]triazolo[4,3-a]pyridin-6-yl)-2H-pyrazolo[3,4-b]pyrazin-6-yl)phenol], the EC50 is reported as 198 nM.
`CCc1nnc2n1CC(n1cc3ncc(-c4c(C)cc(C(F)(F)F)cc4O)nc3n1)CC2` (single isomer, unassigned) [Example 72, (R or S)-2-(2-(3-ethyl-5,6,7,8-tetrahydro-[1,2,4]triazolo[4,3-a]pyridin-6-yl)-2H-pyrazolo[3,4-b]pyrazin-6-yl)-3-methyl-5-(trifluoromethyl)phenol] was tested, and the EC50 was 20 nM.
Work on `CCc1nnc2n1CC(n1cc3ncc(-c4c(C)cc(C(F)(F)F)cc4O)nc3n1)CC2` (single isomer, unassigned) [Example 73, (S or R)-2-(2-(3-ethyl-5,6,7,8-tetrahydro-[1,2,4]triazolo[4,3-a]pyridin-6-yl)-2H-pyrazolo[3,4-b]pyrazin-6-yl)-3-methyl-5-(trifluoromethyl)phenol] yielded an EC50 of 142 nM.
In the case of `Cc1cc(C(F)(F)F)cc(O)c1-c1cnc2cn(C3(C)CC(F)C3)nc2n1` (single isomer, unassigned) [Example 74, 2-(2-((1R,3R or 1S,3S)-3-fluoro-1-methylcyclobutyl)-2H-pyrazolo[3,4-b]pyrazin-6-yl)-3-methyl-5-(trifluoromethyl)phenol], the EC50 is reported as 66 nM.
Compound `Cc1cc(C(F)(F)F)cc(O)c1-c1cnc2cn(C3(C)CC(F)C3)nc2n1` (single isomer, unassigned) [Example 75, 2-(2-((1S,3S or 1R,3R)-3-fluoro-1-methylcyclobutyl)-2H-pyrazolo[3,4-b]pyrazin-6-yl)-3-methyl-5-(trifluoromethyl)phenol] has an EC50 of 262 nM.
For `Cc1cc(C(F)(F)F)cc(O)c1-c1cnc2cn(C34CC3COC4(C)C)nc2n1` (single isomer, unassigned) [Example 76, 2-(2-((1R,5R or 1S,5S)-2,2-dimethyl-3-oxabicyclo[3.1.0]hexan-1-yl)-2H-pyrazolo[3,4-b]pyrazin-6-yl)-3-methyl-5-(trifluoromethyl)phenol], the EC50 was 99 nM.
`Cc1cc(C(F)(F)F)cc(O)c1-c1cnc2cn(C34CC3COC4(C)C)nc2n1` (single isomer, unassigned) [Example 77, 2-(2-((1S,5S or 1R,5R)-2,2-dimethyl-3-oxabicyclo[3.1.0]hexan-1-yl)-2H-pyrazolo[3,4-b]pyrazin-6-yl)-3-methyl-5-(trifluoromethyl)phenol] was tested, and the EC50 was 445 nM.

Reference: patent US20250195511A1, “INDAZOLE DERIVATIVES USEFUL AS INHIBITORS OF NOD-LIKE RECEPTOR PROTEIN 3” (Merck Sharp & Dohme LLC, priority 2023, published 2025)
